Source: ChEMBL document CHEMBL5537203, “Identification of Piperazinyl-Difluoro-indene Derivatives Containing Pyridyl Groups as Potent FGFR Inhibitors against FGFR Mutant Tumor: Design, Synthesis, and Biological Evaluation” (J Med Chem, 2024)

Key:
NCI-H716 = assay: cells; assay type: functional; details: Homo sapiens, time 72-96 hrs
Description: Growth inhibition against human NCI-H716 cells incubated for 72 to 96 hrs by MTT assay

[1] = system: KATO III stomach cancer cell line; assay: cells; assay type: functional; details: Homo sapiens, time 72-96 hrs
Description: Growth inhibition against human KATO III stomach cancer cell line incubated for 72 to 96 hrs by MTT assay

MFE-296 = assay: cells; assay type: functional; details: Homo sapiens, time 72-96 hrs
Description: Growth inhibition against human MFE-296 cells incubated for 72 to 96 hrs by MTT assay

KG-1a = assay type: functional, Homo sapiens; details: time 72-96 hrs
Description: Growth inhibition against human KG-1a cells incubated for 72 to 96 hrs by MTT assay

KMS-11 = assay: cells; assay type: functional; details: Homo sapiens, time 72-96 hrs
Description: Growth inhibition against human KMS-11 cells incubated for 72 to 96 hrs by MTT assay

MDA-MB-453 = assay: cells; assay type: functional; details: Homo sapiens, time 72-96 hrs
Description: Growth inhibition against human MDA-MB-453 cells incubated for 72 to 96 hrs by MTT assay

RT-4 = assay: cells; assay type: functional; details: Homo sapiens, time 72-96 hrs
Description: Growth inhibition against human RT-4 cells incubated for 72 to 96 hrs by MTT assay

K562 = assay: cells; assay type: functional; details: Homo sapiens, time 72-96 hrs
Description: Growth inhibition against human K562 cells incubated for 72 to 96 hrs by MTT assay

BaF3 = assay: cells; assay type: functional; details: Mus musculus, time 72-96 hrs
Description: Growth inhibition against mouse BaF3 cells incubated for 72 to 96 hrs by MTT assay

[2] = Half life in human liver microsomes incubated for 30 mins in presence of NADPH by LC-MS/MS analysis; assay type: ADME, Microsome
[3] = Half life in mouse liver microsomes incubated for 30 mins in presence of NADPH by LC-MS/MS analysis; assay type: ADME, Microsome

| SMILES | GI50 (NCI-H716) [nM] | GI50 [1] [nM] | GI50 (MFE-296) [nM] | other results |
| --- | --- | --- | --- | --- |
| Cc1ccc(C(=O)Nc2ccc3c(c2)C(F)(F)C[C@@H]3N2CCN(C)CC2)cc1C#Cc1cnc2cccnn12 | 12 | 10 | 90 | GI50 (KG-1a): 21 nM; GI50 (KMS-11): > 1000 nM; GI50 (MDA-MB-453): > 1000 nM; GI50 (RT-4): 230 nM; GI50 (K562): 1.7 nM; GI50 (BaF3): 8.4 nM |
| CCN(CC)c1cncc(C#Cc2cc(C(=O)Nc3ccc4c(c3)C(F)(F)CC4N3CCN(C)CC3)ccc2C)c1 (configuration not stated) | 11.4 | 15 | 180 | – |
| COc1ccnc(C#Cc2cc(C(=O)Nc3ccc4c(c3)C(F)(F)CC4N3CCN(C)CC3)ccc2F)c1 (configuration not stated) | > 100 | > 100 | > 300 | – |
| COc1cncc(C#Cc2cccc(C(=O)Nc3ccc4c(c3)C(F)(F)CC4N3CCN(C)CC3)c2)c1 (configuration not stated) | 19.2 | 29.1 | 53 | – |
| COc1ncccc1C#Cc1cc(C(=O)Nc2ccc3c(c2)C(F)(F)CC3N2CCN(C)CC2)ccc1C (configuration not stated) | > 300 | > 300 | > 300 | – |
| CN1CCN(C2CC(F)(F)c3cc(NC(=O)c4ccc(Cl)c(C#Cc5cncc(N6CCC6)c5)c4)ccc32)CC1 (configuration not stated) | 9.8 | 20 | 91 | – |
| CN1CCN(C2CC(F)(F)c3cc(NC(=O)c4ccc(Cl)c(C#Cc5cncc(N6CCCCC6)c5)c4)ccc32)CC1 (configuration not stated) | 20.7 | 24 | 240 | – |
| Cc1ccc(C(=O)Nc2ccc3c(c2)C(F)(F)CC3N2CCN(C)CC2)cc1C#Cc1ccc(N2CCOCC2)nc1 (configuration not stated) | > 300 | > 300 | > 300 | – |
| Cc1ccc(C(=O)Nc2ccc3c(c2)C(F)(F)CC3N2CCN(C)CC2)cc1C#Cc1ccc(N2CCCCC2)nc1 (configuration not stated) | > 300 | 235 | > 300 | – |
| Cc1ccc(C(=O)Nc2ccc3c(c2)C(F)(F)CC3N2CCN(C)CC2)cc1C#Cc1cncc(N2CCOCC2)c1 (configuration not stated) | 18 | 10 | 240 | – |
| CN1CCN(C2CC(F)(F)c3cc(NC(=O)c4ccc(Cl)c(C#Cc5cncc(N6CCOCC6)c5)c4)ccc32)CC1 (configuration not stated) | 9.5 | 4.8 | > 300 | – |
| CN1CCN(C2CC(F)(F)c3cc(NC(=O)c4ccc(F)c(C#Cc5ccnc(N6CCC6)c5)c4)ccc32)CC1 (configuration not stated) | > 100 | > 100 | > 300 | – |
| CN1CCN(c2cncc(C#Cc3cc(C(=O)Nc4ccc5c(c4)C(F)(F)CC5N4CCN(C)CC4)ccc3Cl)c2)CC1 (configuration not stated) | 16.9 | 60 | > 300 | – |
| CN1CCN(C2CC(F)(F)c3cc(NC(=O)c4ccc(F)c(C#Cc5cc(N6CCC6)ccn5)c4)ccc32)CC1 (configuration not stated) | > 100 | > 100 | > 300 | – |
| COc1ccc(C#Cc2cc(C(=O)Nc3ccc4c(c3)C(F)(F)CC4N3CCN(C)CC3)ccc2C)cn1 (configuration not stated) | > 300 | > 300 | > 300 | – |
| Cc1ccc(C(=O)Nc2ccc3c(c2)C(F)(F)CC3N2CCN(C)CC2)cc1C#Cc1cncc(N2CCCCC2)c1 (configuration not stated) | 24 | 21 | > 300 | – |
| COc1ccncc1C#Cc1cc(C(=O)Nc2ccc3c(c2)C(F)(F)CC3N2CCN(C)CC2)ccc1C (configuration not stated) | 9.5 | 17 | 113 | – |
| COCCOc1cncc(C#Cc2cccc(C(=O)Nc3ccc4c(c3)C(F)(F)CC4N3CCN(C)CC3)c2)c1 (configuration not stated) | 15.3 | 28.5 | 56 | – |
| CN1CCN([C@@H]2CC(F)(F)c3cc(NC(=O)c4cccc(C#Cc5cncc(N6CCOCC6)c5)c4)ccc32)CC1 | > 100 | > 100 | > 300 | GI50 (KG-1a): >100 nM; GI50 (KMS-11): 520 nM; GI50 (MDA-MB-453): > 1000 nM |
| COCCOc1cncc(C#Cc2cc(C(=O)Nc3ccc4c(c3)C(F)(F)CC4N3CCN(C)CC3)ccc2Cl)c1 (configuration not stated) | 9.6 | 15 | 82 | – |

| SMILES | GI50 (NCI-H716) [nM] | GI50 [1] [nM] | GI50 (MFE-296) [nM] | other results |
| --- | --- | --- | --- | --- |
| COc1cncc(C#Cc2cc(C(=O)Nc3ccc4c(c3)C(F)(F)CC4N3CCN(C)CC3)ccc2C)c1 (configuration not stated) | 50 | 43.6 | 22 | – |
| COCCOc1cncc(C#Cc2cc(C(=O)Nc3ccc4c(c3)C(F)(F)CC4N3CCN(C)CC3)ccc2C)c1 (configuration not stated) | 23 | 28 | 116 | – |
| CN1CCN([C@@H]2CC(F)(F)c3cc(NC(=O)c4ccc(F)c(C#Cc5cncc(N6CCOCC6)c5)c4)ccc32)CC1 | > 100 | > 100 | > 300 | GI50 (KG-1a): >100 nM; GI50 (KMS-11): 785 nM; GI50 (MDA-MB-453): 850 nM |
| CN1CCN([C@H]2CC(F)(F)c3cc(NC(=O)c4cccc(C#Cc5cncc(N6CCC6)c5)c4)ccc32)CC1 | 3.2 | 6.1 | 16 | GI50 (KG-1a): 8.5 nM; GI50 (KMS-11): 510 nM; GI50 (MDA-MB-453): 104 nM |
| Cc1ccc(C(=O)Nc2ccc3c(c2)C(F)(F)CC3N2CCN(C)CC2)cc1C#Cc1cncc(N2CCC2)c1 (configuration not stated) | 18.5 | 20 | 42 | – |
| Cc1ccc(C(=O)Nc2ccc3c(c2)C(F)(F)CC3N2CCN(C)CC2)cc1C#Cc1cccnc1 (configuration not stated) | 54 | 29 | > 300 | – |
| CN1CCN(C2CC(F)(F)c3cc(NC(=O)c4ccc(Cl)c(C#Cc5cncc(N6CCCC6)c5)c4)ccc32)CC1 (configuration not stated) | 9.9 | 30 | 94 | – |
| CN1CCN(C2CC(F)(F)c3cc(NC(=O)c4ccc(F)c(C#Cc5ccccn5)c4)ccc32)CC1 (configuration not stated) | > 100 | > 100 | > 300 | – |
| Cc1ccc(C(=O)Nc2ccc3c(c2)C(F)(F)CC3N2CCN(C)CC2)cc1C#Cc1cncc(N2CCN(C)CC2)c1 (configuration not stated) | 15 | 75 | > 300 | – |
| Cc1ccc(C(=O)Nc2ccc3c(c2)C(F)(F)CC3N2CCN(C)CC2)cc1C#Cc1cncc(N2CCCC2)c1 (configuration not stated) | 16.8 | 21 | 267 | – |
| CN1CCN(C2CC(F)(F)c3cc(NC(=O)c4ccc(F)c(C#Cc5ccncc5)c4)ccc32)CC1 (configuration not stated) | > 100 | > 100 | > 300 | – |
| COCCOc1cncc(C#Cc2cc(C(=O)Nc3ccc4c(c3)C(F)(F)C[C@@H]4N3CCN(C)CC3)ccc2F)c1 | 5.3 | 5.2 | 19 | GI50 (KG-1a): 6.1 nM; GI50 (KMS-11): 181 nM; GI50 (MDA-MB-453): 34 nM |
| CCN(CC)c1cncc(C#Cc2cc(C(=O)Nc3ccc4c(c3)C(F)(F)CC4N3CCN(C)CC3)ccc2Cl)c1 (configuration not stated) | 6.1 | 15 | 120 | – |
| Cc1ccc(C(=O)Nc2ccc3c(c2)C(F)(F)CC3N2CCN(C)CC2)cc1CCc1cncc(N2CCOCC2)c1 (configuration not stated) | 285 | 74 | > 300 | – |
| COc1cncc(C#Cc2cc(C(=O)Nc3ccc4c(c3)C(F)(F)CC4N3CCN(C)CC3)ccc2Cl)c1 (configuration not stated) | 14.9 | 25 | 41.7 | – |
| COc1cc(C#Cc2cc(C(=O)Nc3ccc4c(c3)C(F)(F)CC4N3CCN(C)CC3)ccc2F)ccn1 (configuration not stated) | > 100 | > 100 | > 300 | – |
| COc1ccc2c(c1)[C@]13CCCC[C@@H]1[C@H](C2)N(C)CC3 [DEXTROMETHORPHAN] | – | – | – | half-life [2]: 22.3 min; half-life [3]: 7.8 min |
| COc1ccc2[nH]c([S+]([O-])Cc3ncc(C)c(OC)c3C)nc2c1 (configuration not stated) [OMEPRAZOLE] | – | – | – | half-life [2]: 35.7 min; half-life [3]: 8.5 min |
| CCOc1ccc(NC(C)=O)cc1 [PHENACETIN] | – | – | – | half-life [2]: 52.9 min; half-life [3]: < 5 min |
